Laboratory results as given in US8242058B2, “Reagents and methods for appending functional groups to proteins” (Wisconsin Alumni Research Foundation, priority 2006, dated 2012).

Key:
[1] = Immobilization on phosphinothioester-displaying chips by Staudinger ligation, immunofluorescence detection; conditions: 10 μM in 5% DMF/water, r.t.
Description: Preparation of Gold Chips (Chang). Preparation of Phosphinothioester-displaying SAMs of Alkane Thiols on Gold Chips. Alkane thiol solutions were prepared by dissolving HS—(CH2)11—(O—CH2—CH2)6—O—CH2—COOH and HS—(CH2)11—(O—CH2—CH2)3—OH in ethanol to a final concentration of 0.25 mM each. Gold chips were cleaned under a stream of Ar(g) and immersed in the alkane thiol solution for at least 18 h at r.t. After rinsing thoroughly with ethanol and drying under a stream of Ar(g), the chips were overlaid with an aqueous solution containing N-hydroxysuccinimide (50 mM) and 1-ethyl-3-(3-dimethylaminopropyl)-carbodiimide (200 mM) for 7 min to generate succinimidyl ester-displaying chips. Phosphinomethanethiol (PPh2CH2SH) was synthesized as described earlier and was dissolved in anhydrous DMF to a concentration of 100 mM. N,N-diisopropylethylamine (DIPEA) was added to a concentration of 120 mM. […]
Detection of Immobilized RNase A. A chip displaying immobilized RNase A was overlaid with anti-RNase A rabbit primary antibody (100 μg/mL in sodium phosphate buffer (25 mM) at pH 7.5) for 30 min at r.t. […] Finally, the chip was rinsed with sodium phosphate buffer (25 mM) at pH 7.5 (2×20 mL) and incubated in the same buffer for 15 min and scanned with a Genomic Solutions® GeneTac UC4×4 Fluorescence Scanner using a gain of 50.

[2] = test system: 6-carboxyfluorescein-dArU(dA)2-6-carboxytetramethylrhodamine; experiment: RNase A activity assay on immobilized RNase A; format: biochemical; conditions: chip overlaid with 10 μM protein, pH 6.0
Description: RNase A activity assay on immobilized RNase A. A phosphinothioester chip was overlaid with azido-RNase A (10 μM in 5% DMF/H2O) for 15 min in Ar(g) atmosphere in an AtmosBag™ to immobilize RNase A via Staudinger ligation. The chip was rinsed with sodium phosphate buffer (25 mM) at pH 7.5 (2×20 mL) and then introduced into a vial containing 2-(N-Morpholino)ethanesulfonic acid buffer (0.1 M) at pH 6.0 (22 mL, containing 0.1 M NaCl). A fluorogenic substrate of RNase A, 6-carboxyfluorescein-dArU(dA)2-6-carboxytetramethylrhodamine (10 μl of a 40 μM solution), was introduced into the vial. The vial was placed on a shaker and 2 mL aliquots were withdrawn at various time intervals and the fluorescence measured (λex=493 nm, λem=515 nm). The fluorescence intensity was plotted against time. A phosphinothioester chip was overlaid with wt-RNase A (10 μM in 5% DMF/H2O) and rinsed with sodium phosphate buffer (25 mM) at pH 7.5 (2×20 mL) and a similar assay was performed. As a negative control, a similar assay was performed on a phosphinothioester chip which was not overlaid with RNase A. The percentage of the fluorescent substrate cleaved at various time intervals were subtracted from the corresponding values for the negative control to generate the graph in FIG. 8.

[3] = molecular target: T1, ribonuclease inhibitor protein (RI) (Homo sapiens, UniProt P13489); experiment: RI binding to immobilized RNase A (immunoassay, ellipsometry); conditions: RI 10 μM, 10 min at 4° C.
T1 sequence (P13489 2-461 limits assumed): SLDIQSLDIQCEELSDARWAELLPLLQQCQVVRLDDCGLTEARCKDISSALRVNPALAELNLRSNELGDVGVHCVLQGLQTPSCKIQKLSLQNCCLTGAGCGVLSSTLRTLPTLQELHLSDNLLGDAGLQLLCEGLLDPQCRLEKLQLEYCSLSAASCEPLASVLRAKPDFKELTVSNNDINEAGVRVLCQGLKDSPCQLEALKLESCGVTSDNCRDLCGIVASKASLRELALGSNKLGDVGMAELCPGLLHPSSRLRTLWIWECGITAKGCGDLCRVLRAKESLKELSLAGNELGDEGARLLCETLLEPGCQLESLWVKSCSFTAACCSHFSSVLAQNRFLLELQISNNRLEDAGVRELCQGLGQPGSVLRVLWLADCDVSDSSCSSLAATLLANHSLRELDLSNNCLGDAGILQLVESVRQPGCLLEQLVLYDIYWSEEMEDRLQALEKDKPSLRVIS
Description: RI binding to immobilized RNase A. Azido-RNase A (1 μL, 10 μM in 5% DMF/water) was spotted on phosphinothioester-displaying SAMs on a gold chip for 15 minutes at r.t. in an AtmosBag™ filled with Ar(g). The chip was taken out of the bag and rinsed with sodium phosphate buffer (25 mM) at pH 7.5 (2×20 mL) and incubated in the same buffer for 30 min to remove non-specifically bound RNase A. RI (10 μM in sodium phosphate buffer (25 mM) at pH 7.5 containing 10 mM DTT) was overlaid on the chip for 10 min at 4° C. The chip was then rinsed with sodium phosphate buffer (25 mM) at pH 7.5 containing 10 mM DTT (2×20 mL) and incubated in the same buffer for 15 min.
Detection of RI bound to immobilized RNase A. (i) Immunoassay: After RI binding, the chip was overlaid with bovine serum albumin (2.0 mg/mL in sodium phosphate buffer (25 mM) at pH 7.5) for 15 min. The chip was rinsed with sodium phosphate buffer (25 mM) at pH 7.5 (2×20 mL) and subsequently incubated with chicken primary antibody to RI (12.5 μg/mL in sodium phosphate buffer (25 mM) at pH 7.5) for 15 min. […] The chip was scanned with a Genomic Solutions® GeneTac UC4×4 Fluorescence Scanner using a gain of 50. […]

Met(−1)RNase A-Gly-NHNHCH2C(O)NHCH2CH2N3 [azido-RNase A]
time at which fluorescence signal of immobilized protein was detected [1]: ≤ 1 min
enzymatic activity of chip incubated with the protein (increase of fluorescence intensity) [2]: much faster rate
RI binding to chip incubated with the protein [3]: bound RI
